Reference: patent US20230099344A1, “COMPOUNDS AND METHODS FOR THE TARGETED DEGRADATION OF IRAK-4” (Arvinas Operations, Inc., priority 2021, published 2023)

Columns and labels:
[1] = system: IL8; assay: IL-1β stimulated IL8 inhibition assay in PBMC; format: cell-based; details: human PBMCs, IL-1β stimulation, compound overnight, IL8 by MSD after 24 hrs; for IC50: read-out: IL1β stim IL8 inhibition IC50; for Emax: read-out: IL1β stim IL8 inhibition Ymax
In short: (§1)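 Primary human PBMCs plated at 2.0×10^6 cells/mL are incubated with compound overnight. Stimulation follows using the donor's EC50 concentration of agonist. MSD detects secreted IL6/IL8 at 24 hrs.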

[2] = target: T1, IRAK-4 (Homo sapiens, UniProt Q9NWZ3); assay: IRAK-4 ELISA, OCI-Ly10 degradation; format: cell-based; design: endogenous in cells; details: treated overnight; for Dmax: OCI-Ly10, OCI-Ly10 cells; for DC50: OCI-Ly10 cells
T1 sequence (Q9NWZ3 1-460): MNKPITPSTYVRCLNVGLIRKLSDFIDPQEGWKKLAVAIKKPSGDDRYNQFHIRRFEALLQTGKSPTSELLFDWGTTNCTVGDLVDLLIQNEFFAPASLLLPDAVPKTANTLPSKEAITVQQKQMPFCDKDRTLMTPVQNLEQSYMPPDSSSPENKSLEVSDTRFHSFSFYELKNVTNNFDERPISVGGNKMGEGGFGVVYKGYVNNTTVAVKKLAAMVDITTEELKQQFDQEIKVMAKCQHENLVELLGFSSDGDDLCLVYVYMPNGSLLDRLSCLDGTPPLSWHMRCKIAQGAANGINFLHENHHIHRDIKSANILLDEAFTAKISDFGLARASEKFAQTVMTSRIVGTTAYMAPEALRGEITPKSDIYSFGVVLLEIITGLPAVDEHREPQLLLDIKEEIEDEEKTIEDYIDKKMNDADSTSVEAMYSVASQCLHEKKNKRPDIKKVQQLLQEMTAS
In short: (§2)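 OCI-Ly10 cells (seeded at 1×10^6/ml) or human PBMC (seeded at 2×10^6/ml) were treated with compound on the day of seeding and incubated overnight. Lysates were then assayed for remaining IRAK-4 protein by sandwich ELISA with a matched antibody pair.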

[3] = target: T1, IRAK-4; assay: IRAK-4 ELISA, PBMC degradation; format: cell-based; design: endogenous in cells; host or cells: PBMC; details: treated overnight
In short: as §2

[4] = system: IL6; assay: R848 stimulated IL6 inhibition assay in PBMC; format: cell-based; details: PBMC, human PBMCs, R848 stimulation, compound overnight, IL6 by MSD after 24 hrs; for Dmax: Homo sapiens, 24 h, read-out: R848 stim IL6 inhibition Dmax; for IC50: read-out: R848 stim IL6 inhibition IC50
In short: as §1

[5] = system: IL6; assay: IL-1β stimulated IL6 inhibition assay in PBMC; format: cell-based; details: PBMC, human PBMCs, IL-1β stimulation, compound overnight, IL6 by MSD after 24 hrs; for IC50: Homo sapiens, 24 h, read-out: IL1β stim IL6 inhibition IC50; for Emax: read-out: IL1β stim IL6 inhibition Ymax
In short: as §1

[6] = system: IL6; assay: LPS stimulated IL6 inhibition assay in PBMC; format: cell-based; details: Homo sapiens, PBMC, 24 h, human PBMCs, LPS stimulation, compound overnight, IL6 by MSD after 24 hrs; for Dmax: read-out: LPS Stim IL6 inhibition Dmax; for IC50: read-out: LPS stim IL6 inhibition IC50
In short: as §1

[7] = target: T1, IRAK-4; assay: PD study in C.B.17 SCID mice with OCI-LY1 tumor xenograft; format: in vivo; design: from tissue; host or cells: OCI-Ly1 tumour xenograft from C.B.17 SCID mice; details: OCI-Ly1 tumor lysate, ELISA normalized to total protein; oral 5, 15 or 50 mg/kg, 24 hours post-dose; vs vehicle; FIG. 2
Procedure: FIG. 2. PD study in C.B.17 SCID mice with OCI-LY1 tumor xenograft.
PD Study for with in C.B.17 SCID and WT Mice
Cell culture: OCI-Ly1 tumor cells were maintained as a suspension in IMDM medium supplemented with 20% fetal bovine serum under an atmosphere of 5% C02 in air at 37° C. Cell density was maintained below 1×10^6/mL.
Animals: Female C.B. 17 SCID mice aged 6-8 weeks weighing between 16-18 g were used and maintained according to IACUC protocols.
Tumor Inoculation: Each mouse was inoculated with OCI-Ly1 tumor cells (10×106) in 0.1 mL of RPMI with Matrigel. Treatment was initiated when the tumor sizes reached […].
A PD Study in C.B.17 SCID Mice with OCI-LY1 Tumor Xenograft was Performed
In FIG. 2, animals were dosed orally after tumors were inoculated and the tumor sizes reached […], with 5, 15, or 50 mg/kg formulated with 10% DMSO, 90% (2% Tween 80 in PEG 400) and sacrificed humanely 24 hours post-dose. Blood was obtained for isolation of plasma for terminal compound exposure. Tumors was removed and divided in 2 portions, one each for terminal compound concentration and for determination of IRAK-4 content. Compound concentrations were determined by LC/MS with calibrated standards. IRAK-4 content in tumor lysate was quantified by ELISA and normalized to total protein concentration per sample. […]

[8] = target: T2, IRAK-4 (Mus musculus, UniProt Q8R4K2); assay: PD study in wild type mice (spleen and lung); format: in vivo; details: oral 10, 30 or 90 mg/kg, terminated 24 h later, ELISA, vs vehicle, FIGS. 3A and 3B
T2 construct: plasma, spleen and lung tissue were collected for analysis of compound concentration and IRAK-4 quantification; from tissue; host or cells: spleen and lung of wild type mice
T2 sequence (Q8R4K2 1-459): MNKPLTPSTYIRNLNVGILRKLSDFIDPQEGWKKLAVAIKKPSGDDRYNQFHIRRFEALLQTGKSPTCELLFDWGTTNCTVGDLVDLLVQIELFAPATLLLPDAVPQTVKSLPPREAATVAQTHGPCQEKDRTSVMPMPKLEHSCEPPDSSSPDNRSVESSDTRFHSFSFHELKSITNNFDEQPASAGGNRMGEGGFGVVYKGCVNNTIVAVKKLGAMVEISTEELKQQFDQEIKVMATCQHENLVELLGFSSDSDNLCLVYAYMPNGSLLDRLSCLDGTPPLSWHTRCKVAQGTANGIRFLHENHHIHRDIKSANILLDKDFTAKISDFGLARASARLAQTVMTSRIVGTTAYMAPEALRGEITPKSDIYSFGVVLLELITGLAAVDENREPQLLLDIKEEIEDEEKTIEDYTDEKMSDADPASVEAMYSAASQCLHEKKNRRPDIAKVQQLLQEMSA
Procedure: FIGS. 3A and 3B. PD study in wild type mice.
A PD Study in Wild Type Mice was Performed
In FIGS. 3A and 3B, mice were randomly assigned to each treatment group. Animals were dosed orally with 10, 30, or 90 mg/kg compound formulated in 10% DMSO, 90% (2% Tween 80 in PEG 400) and terminated 24 h later. At termination, plasma, spleen and lung tissue were collected for analysis of compound concentration and IRAK-4 quantification. Spleen and lung were snap frozen. IRAK-4 content in any tissue is assessed with the same protocol described for tumor lysates.

Row | IC50 [1] [nM] | Dmax [2] [%] | DC50 [2] [nM] | DC50 [3] [nM] | Dmax [3] [%] | PBMC DC90 [3] | IC50 [4] [nM] | IC50 [5] [nM] | IC50 [6] [nM] | IRAK-4 concentration in the tumor samples [7] | IRAK-4 concentration in spleen and lung samples [8] | Structure (SMILES) | Emax [1] [%] | Dmax [4] [%] | Emax [5] [%] | Dmax [6] [%]
1 | 10 to 50 | ≥ 90 | < 10 | < 1 | ≥ 90 | 1 nM | < 10 | < 10 | < 10 |  |  | CC(C)Oc1cc2c(cc1NC(=O)c1cnn3cccnc13)CN(C1CCN(CC3CCN(c4ccc5c(c4)C(=O)N(C4CCC(=O)NC4=O)C5=O)CC3)CC1)C2=O (stereo not drawn) [Example 1, N-(2-(1-((1-(2-(2,6-dioxopiperidin-3-yl)-1,3-dioxoisoindolin-5-yl)piperidin-4-yl)methyl)piperidin-4-yl)-6-isopropoxy-1-oxoisoindolin-5-yl)pyrazolo[1,5-a]pyrimidine-3-carboxamide] | 70 to 80 | ≥ 90 | ≥ 90 | 80 to 90
2 | 10 to 50 | 80 to 90 | < 10 | < 1 | ≥ 90 | A (A represents a DC90 value <10.0 nM) | 10 to 50 | < 10 | 10 to 50 |  |  | COc1cc(N2CCC(CN3CCC(N4Cc5cc(NC(=O)c6cnn7cccnc67)c(OC(C)C)cc5C4=O)CC3)CC2)cc2c1C(=O)N(C1CCC(=O)NC1=O)C2 (stereo not drawn) [Example 23] | 80 to 90 | ≥ 90 | ≥ 90 | 70 to 80
3 | 10 to 50 | ≥ 90 | < 10 | < 1 | 80 to 90 | A (A represents a DC90 value <10.0 nM) | 10 to 50 | < 10 | < 10 |  |  | O=C1CCC(N2Cc3cc(N4CCC(CN5CCC(N6Cc7cc(NC(=O)c8cnn9cccnc89)c(N8CCC(N9CCC9)CC8)cc7C6=O)CC5)CC4)ccc3C2=O)C(=O)N1 (stereo not drawn) [Example 97] | ≥ 90 | ≥ 90 | ≥ 90 | ≥ 90
4 |  |  |  | 1 to 5 | ≥ 90 | A (A represents a DC90 value <10.0 nM) | 10 to 50 |  | 10 to 50 | lower | much lower | CC(C)Oc1cc2c(cc1NC(=O)c1cnn3cccnc13)CN(C1CCN(C(C)(C)C3CN(c4ccc5c(c4)C(=O)N(C4CCC(=O)NC4=O)C5=O)C3)CC1)C2=O (stereo not drawn) [Example 112] |  | ≥ 90 |  | ≥ 90
5 | 10 to 50 | ≥ 90 | 10 to 50 | 1 to 5 | ≥ 90 | A (A represents a DC90 value <10.0 nM) | 10 to 50 | < 10 | 10 to 50 |  |  | O=C1CCC(N2C(=O)c3ccc(N4CCC(CN5CCC(n6cc7cc(NC(=O)c8cnn9cccnc89)c(OCC8CC8)cc7n6)CC5)CC4)cc3C2=O)C(=O)N1 (stereo not drawn) [Example 165] | 70 to 80 | ≥ 90 | 80 to 90 | 70 to 80
6 | ≥ 100 | ≥ 90 | < 10 | < 1 | ≥ 90 | A (A represents a DC90 value <10.0 nM) |  | 10 to 50 |  |  | much lower | O=C1CCC(N2C(=O)c3ccc(N4CCN(CCN5CCC(n6cc7cc(NC(=O)c8cnn9cccnc89)c(OCC8CC8)cc7n6)CC5)CC4)cc3C2=O)C(=O)N1 (stereo not drawn) [Example 167] | 80 to 90 |  | ≥ 90 | 
7 | < 10 | ≥ 90 | < 10 | < 1 | ≥ 90 | A (A represents a DC90 value <10.0 nM) | < 10 | < 10 | 10 to 50 |  |  | CC(C)Oc1cc2c(cc1NC(=O)c1cnn3cccnc13)CN([C@H]1CC[C@H](N(C)C3CN(c4ccc5c(c4)C(=O)N(C4CCC(=O)NC4=O)C5=O)C3)CC1)C2=O (stereo partly drawn) [Example 313, N-(2-((1r,4r)-4-((1-(2-(2,6-dioxopiperidin-3-yl)-1,3-dioxoisoindolin-5-yl)azetidin-3-yl)(methyl)amino)cyclohexyl)-6-isopropoxy-1-oxoisoindolin-5-yl)pyrazolo[1,5-a]pyrimidine-3-carboxamide] | < 70 | ≥ 90 | ≥ 90 | 80 to 90

Row | Structure (SMILES) | IC50 [1] [nM] | Dmax [2] [%] | DC50 [2] [nM] | DC50 [3] [nM] | Dmax [3] [%] | PBMC DC90 [3] | IC50 [4] [nM] | IC50 [5] [nM] | IC50 [6] [nM] | IRAK-4 concentration in the tumor samples [7] | IRAK-4 concentration in spleen and lung samples [8] | Emax [1] [%] | Dmax [4] [%] | Emax [5] [%] | Dmax [6] [%]
8 | O=C1CCC(N2C(=O)c3ccc(N4CC(F)(CN5CCC(n6cc7cc(NC(=O)c8cnn9cccnc89)c(OCC8CC8)cc7n6)CC5)C4)cc3C2=O)C(=O)N1 (stereo not drawn) [Example 161, N-(6-(cyclopropylmethoxy)-2-(1-((1-(2-(2,6-dioxopiperidin-3-yl)-1,3-dioxoisoindolin-5-yl)-3-fluoroazetidin-3-yl)methyl)piperidin-4-yl)-2H-indazol-5-yl)pyrazolo[1,5-a]pyrimidine-3-carboxamide] | ≥ 100 | ≥ 90 | 10 to 50 | 1 to 5 | ≥ 90 | B (B represents a DC90 value ≥10.0 nM and <25.0 nM) | 10 to 50 | 10 to 50 | 10 to 50 |  |  |  | ≥ 90 | 80 to 90 | 70 to 80
